Experimental data reported in patent US10758609B2, “Cross-reactive T-cell epitopes of HIV, SIV, and FIV for vaccines in humans and cats” (priority 2015, dated 2020).

Experiments:
[1] = tested on: CD3^+CD4^+ T cells from HIV^+ subjects; assay: CFSE-based CD3+CD4+ T-cell proliferation, HIV+ human subjects; conditions: for CD4, frequency of responders: FIV epitope peptide; for CDC4^+ T (T-cell proliferation), frequency of responders: FIV peptides
Description: (§1) The overlapping peptide pools of FIV and HIV-1 structural and enzyme proteins were used to stimulate the […] (PBMC) and the T cells from HIV^+ subjects as previously described for epitope mapping of HIV-1 and FIV p24 and reverse transcriptase (RT) (Sanou et al., 2013; Roff et al., 2015). The individual peptides in those peptide pools with positive responses to either interferon-γ (IFNγ) production and/or T-cell proliferation were determined with IFNγ ELISpot analysis and CFSE-based CD3^+CD4^+ and CD3^+CD8^+ T-cell proliferation analyses followed by the FACS-based intracellular staining (ICS) for cytolysin (perforin) and cytotoxin (granzyme A [GrzA] and GrzB) (Sanou et al., 2013; Roff et al., 2015). Besides viral p24 and RT proteins, the identical approach was used to identify anti-HIV/FIV T-cell epitopes on viral matrix (MA), nucleocapsid (NC), protease (PR), RNAase, integrase (IN), surface envelope (SU Env), and transmembrane envelope (TM Env) (FIG. 12).
(§2) Since our goal is to develop HIV vaccine for human use, the HIV peptides (Table 10) counterpart of the cross-reactive FIV peptides shown in Table 9 were tested with PBMC and T cells from HIV^+ subjects. The immune functions analyzed were human IFNγ production by ELISpot, cytolysin/cytotoxin production by ICS, and CFSE-based proliferation of CD3^+CD4^+ and CD3^+CD8^+ T cells from HIV^+ subjects (Table 10, the first set of results). In addition, the Los Alamos National Laboratories (LANL) database was used to identify the HLA allele(s) of the HIV epitope sequence with CTL activity that can exist within the sequence of the conserved counterpart HIV peptide (Table 9, LANL CTL). The bold HLA class-I supertypes and the bold 2-digit alleles are those on the “Optimal CD8^+ CTL Epitopes” list and those without bold are alleles for potential CTL epitope. […] The HLA class II such as HLA-DRB1 has yet to be fully classified into supertypes, and therefore the 4-digit resolution nomenclatures for the HLA-DRB1 alleles are shown.
(§3) The threshold for positive IFNγ and IL2 ELISpot responses is ≥50 spot-forming units (SFU) per 10^6 PBMC. The threshold for CFSE-based CD4^+ and CD8^+ T-cell proliferation is ≥2% CD4^+ T-cell CFSE^low or CD8^+ T-cell CFSE^low. The threshold of FACS-based intracellular cytokine staining (ICS) is ≥0.2%. […] The nine FIV peptides in black were used in the current MAP vaccine trial, whereas the 13 peptides in blue were not used. […] The MAPs and their corresponding peptide(s) were also tested for their ability to enhance or suppress in vitro FIV infection of feline PBMC (E/S of peptides and E/S of MAP).
(§4) The counterpart HIV-1 peptides of the FIV peptides were also tested for immunogenicity using PBMC and T cells from HIV^+ human subjects. […] The HRT7-1 and HRT7-2 were also tested with cells from HIV^+ subjects on ART. The threshold for positive IFNγ ELISpot response is ≥75 spot-forming units (SFU) per 10^6 PBMC. The threshold for CFSE-based CD4^+ (CD4^+ T) and CD8^+ (CD8^+ T) T-cell proliferation is ≥2% CD4^+ T-cell CFSE^low or CD8^+ T-cell CFSE^low. The threshold of intracellular cytokine staining (ICS) of FACS-based cytolysin (perforin) and cytotoxins (granzymes A and B) in CD4^+ T cells (CyCD4) and CD8^+ T cells (CyCD8) is ≥0.2%. […] The nine HIV-1 peptides in black are the counterpart FIV peptides used in the current MAP vaccine trial, whereas the 13 peptides in blue were not.

[2] = tested on: CD3^+CD8^+ T cells from HIV^+ subjects; assay: CFSE-based CD3+CD8+ T-cell proliferation, HIV+ human subjects; conditions: for CD8, frequency of responders: FIV epitope peptide; for CD8^+ T (T-cell proliferation), frequency of responders: FIV peptides
Description: as §1, §2, §3, §4

Sequence | CD4, frequency of responders [1] | CDC4^+ T (T-cell proliferation), frequency of responders [1] | CD8, frequency of responders [2] | CD8^+ T (T-cell proliferation), frequency of responders [2]
AGLRQSLEQYQVVKQ [FSU4] | — (0%-1.4% (—)) | — (0%-1.4%(—)) | — (0%-1.4% (—)) | — (0%-1.4%(—))
KFLYTAFAMQELR [FTM4-3] | — (0%-1.4% (—)) | — (0%-1.4%(—)) | — (0%-1.4% (—)) | — (0%-1.4%(—))
KKKSGKWRMLIDFRV [FRT3-3] | — (0%-1.4% (—)) | — (0%-1.4%(—)) | ++++ (>54% (++++)) | ++++ (>54% (++++))
LLLILCLPTLVDCIRN [FTM8(20)] | ++ (26%-40% (++)) | ++ (25.1%-40% (++)) | ++++ (>54% (++++)) | ++++ (>54% (++++))
PTDMATLIMAAPGCA [Fp4-3] | — (0%-1.4% (—)) | — (0%-1.4%(—)) | — (0%-1.4% (—)) | — (0%-1.4%(—))
WRMLIDFRVLNKL [FRT3-4] | — (0%-1.4% (—)) | — (0%-1.4%(—)) | ++ (26%-40% (++)) | ++ (25.1%-40% (++))
